Data published in ChEMBL document CHEMBL1153480, “Study on the potential anti-cancer activity of phosphonium and ammonium-based ionic liquids” (2009).

Columns and labels:
Format in all cases: functional
SNB-75 [1] = assay: cells; settings: Homo sapiens
Description: Growth inhibition of human SNB75 cells assessed as drug level required for 50% reduction in net protein increase by SRB assay relative to control

Malme-3M = assay: cells; settings: Homo sapiens
Description: Growth inhibition of human MALME-3M cells assessed as drug level required for 50% reduction in net protein increase by SRB assay relative to control

M14 = assay: cells; settings: Homo sapiens
Description: Growth inhibition of human M14 cells assessed as drug level required for 50% reduction in net protein increase by SRB assay relative to control

SK-MEL-28 [2] = assay: cells; settings: Homo sapiens
Description: Growth inhibition of human SK-MEL-28 cells assessed as drug level required for 50% reduction in net protein increase by SRB assay relative to control

UACC-257 = assay: cells; settings: Homo sapiens
Description: Growth inhibition of human UACC257 cells assessed as drug level required for 50% reduction in net protein increase by SRB assay relative to control

IGROV-1 = assay: cells; settings: Homo sapiens
Description: Growth inhibition of human IGROV1 cells assessed as drug level required for 50% reduction in net protein increase by SRB assay relative to control

OVCAR-3 = assay: cells; settings: Homo sapiens
Description: Growth inhibition of human OVCAR-3 cells assessed as drug level required for 50% reduction in net protein increase by SRB assay relative to control

OVCAR-4 [3] = assay: cells; settings: Homo sapiens
Description: Growth inhibition of human OVCAR4 cells assessed as drug level required for 50% reduction in net protein increase by SRB assay relative to control

SK-OV-3 [4] = assay: cells; settings: Homo sapiens
Description: Growth inhibition of human SKOV3 cells assessed as drug level required for 50% reduction in net protein increase by SRB assay relative to control

786-0 [5] = assay: cells; settings: Homo sapiens
Description: Growth inhibition of human 786-0 cells assessed as drug level required for 50% reduction in net protein increase by SRB assay relative to control

RXF 393 [6] = assay: cells; settings: Homo sapiens
Description: Growth inhibition of human RFX393 cells assessed as drug level required for 50% reduction in net protein increase by SRB assay relative to control

SN12C [7] = assay: cells; settings: Homo sapiens
Description: Growth inhibition of human SN12C cells assessed as drug level required for 50% reduction in net protein increase by SRB assay relative to control

UO-31 [8] = assay: cells; settings: Homo sapiens
Description: Growth inhibition of human UO31 cells assessed as drug level required for 50% reduction in net protein increase by SRB assay relative to control

PC-3 [9] = assay: cells; settings: Homo sapiens
Description: Growth inhibition of human PC3 cells assessed as drug level required for 50% reduction in net protein increase by SRB assay relative to control

DU-145 = assay: cells; settings: Homo sapiens
Description: Growth inhibition of human DU145 cells assessed as drug level required for 50% reduction in net protein increase by SRB assay relative to control

MCF7 = assay: cells; settings: Homo sapiens
Description: Growth inhibition of human MCF7 cells assessed as drug level required for 50% reduction in net protein increase by SRB assay relative to control

BT-549 [10] = assay: cells; settings: Homo sapiens
Description: Growth inhibition of human BT549 cells assessed as drug level required for 50% reduction in net protein increase by SRB assay relative to control

T47D [11] = assay: cells; settings: Homo sapiens
Description: Growth inhibition of human T47D cells assessed as drug level required for 50% reduction in net protein increase by SRB assay relative to control

MDA-MB-468 = assay: cells; settings: Homo sapiens
Description: Growth inhibition of human MDA-MB-468 cells assessed as drug level required for 50% reduction in net protein increase by SRB assay relative to control

MOLT-4 = assay: Cytotoxicity against human MOLT4 cells by SRB assay; settings: read-out: LC50 (the source's name)
SR = assay: Cytotoxicity against human SR cells by SRB assay; settings: read-out: LC50 (the source's name)
NCI-H460 [12] = assay: Cytotoxicity against human NCI-H460 cells by SRB assay; settings: read-out: LC50 (the source's name)
HCC 2998 [13] = assay: Cytotoxicity against human HCC2998 cells by SRB assay; settings: read-out: LC50 (the source's name)
HCT-116 = assay: Cytotoxicity against human HCT116 cells by SRB assay; settings: read-out: LC50 (the source's name)
HT-29 [14] = assay: Cytotoxicity against human HT-29 cells by SRB assay; settings: read-out: LC50 (the source's name)
KM12 [15] = assay: Cytotoxicity against human KM12 cells by SRB assay; settings: read-out: LC50 (the source's name)
SW-620 = assay: Cytotoxicity against human SW620 cells by SRB assay; settings: read-out: LC50 (the source's name)
SNB-19 [16] = assay: Cytotoxicity against human SNB19 cells by SRB assay; settings: read-out: LC50 (the source's name)
SNB-75 [17] = assay: Cytotoxicity against human SNB75 cells by SRB assay; settings: read-out: LC50 (the source's name)
SK-MEL-2 = assay: Cytotoxicity against human SK-MEL-2 cells by SRB assay; settings: read-out: LC50 (the source's name)
SK-MEL-28 [18] = assay: Cytotoxicity against human SK-MEL-28 cells by SRB assay; settings: read-out: LC50 (the source's name)
cells = settings: Homo sapiens, Hs-578T
Description: Growth inhibition of human Hs 578T cells assessed as drug level required for 50% reduction in net protein increase by SRB assay relative to control

ACHN = assay: cells; settings: Homo sapiens
Description: Growth inhibition of human ACHN cells assessed as cell growth at 10 uM by SRB assay

RXF 393 [19] = assay: cells; settings: Homo sapiens; remark: listed apart in the source
Description: Growth inhibition of human RFX393 cells assessed as cell growth at 10 uM by SRB assay

SN12C [20] = assay: cells; settings: Homo sapiens; remark: listed apart in the source
Description: Growth inhibition of human SN12C cells assessed as cell growth at 10 uM by SRB assay

UO-31 [21] = assay: cells; settings: Homo sapiens; remark: listed apart in the source
Description: Growth inhibition of human UO31 cells assessed as cell growth at 10 uM by SRB assay

PC-3 [22] = assay: cells; settings: Homo sapiens; remark: listed apart in the source
Description: Growth inhibition of human PC3 cells assessed as cell growth at 10 uM by SRB assay

MDA-MB-231 = assay: cells; settings: Homo sapiens
Description: Growth inhibition of human MDA-MB-231 cells assessed as cell growth at 10 uM by SRB assay

MDA-MB-435 [23] = assay: cells; settings: Homo sapiens
Description: Growth inhibition of human MDA-MB-435 cells assessed as cell growth at 10 uM by SRB assay

HT-29 [24] = assay: cells; settings: Homo sapiens
Description: Growth inhibition of human HT-29 cells assessed as drug level required for 50% reduction in net protein increase by SRB assay relative to control

NCI-H460 [25] = assay: cells; settings: Homo sapiens
Description: Growth inhibition of human NCI-H460 cells assessed as drug level required for 50% reduction in net protein increase by SRB assay relative to control

UO-31 [26] = assay: Cytotoxicity against human UO31 cells by SRB assay; settings: read-out: LC50 (the source's name)
MDA-MB-435 [27] = assay: Cytotoxicity against human MDA-MB-435 cells by SRB assay; settings: read-out: LC50 (the source's name)
BT-549 [28] = assay: Cytotoxicity against human BT549 cells by SRB assay; settings: read-out: LC50 (the source's name)
CCRF-CEM = assay: cells; settings: Homo sapiens
Description: Growth inhibition of human CCRF-CEM cells assessed as cell growth at 10 uM by SRB assay

K562 = assay: cells; settings: Homo sapiens
Description: Growth inhibition of human K562 cells assessed as cell growth at 10 uM by SRB assay

RPMI-8226 = assay: cells; settings: Homo sapiens
Description: Growth inhibition of human RPMI8226 cells assessed as cell growth at 10 uM by SRB assay

A549 = assay: cells; settings: Homo sapiens
Description: Growth inhibition of human A549 cells assessed as cell growth at 10 uM by SRB assay

HOP-62 = assay: cells; settings: Homo sapiens
Description: Growth inhibition of human HOP62 cells assessed as cell growth at 10 uM by SRB assay

NCI-H322M = assay: cells; settings: Homo sapiens
Description: Growth inhibition of human NCI-H322M cells assessed as cell growth at 10 uM by SRB assay

COLO 205 = assay: cells; settings: Homo sapiens
Description: Growth inhibition of human COLO205 cells assessed as cell growth at 10 uM by SRB assay

HCC 2998 [29] = assay: cells; settings: Homo sapiens
Description: Growth inhibition of human HCC2998 cells assessed as cell growth at 10 uM by SRB assay

HCT-15 = assay: cells; settings: Homo sapiens
Description: Growth inhibition of human HCT15 cells assessed as cell growth at 10 uM by SRB assay

KM12 [30] = assay: cells; settings: Homo sapiens
Description: Growth inhibition of human KM12 cells assessed as cell growth at 10 uM by SRB assay

NCI-H23 = assay: cells; settings: Homo sapiens
Description: Growth inhibition of human NCI-H23 cells assessed as drug level required for 50% reduction in net protein increase by SRB assay relative to control

NCI-H226 = assay: cells; settings: Homo sapiens
Description: Growth inhibition of human NCI-H226 cells assessed as drug level required for 50% reduction in net protein increase by SRB assay relative to control

HOP-92 = assay: cells; settings: Homo sapiens
Description: Growth inhibition of human HOP92 cells assessed as drug level required for 50% reduction in net protein increase by SRB assay relative to control

EKVX = assay: cells; settings: Homo sapiens
Description: Growth inhibition of human EKVX cells assessed as drug level required for 50% reduction in net protein increase by SRB assay relative to control

HL-60(TB) = assay: cells; settings: Homo sapiens
Description: Growth inhibition of human HL-60(TB) cells assessed as drug level required for 50% reduction in net protein increase by SRB assay relative to control

SF-268 = assay: cells; settings: Homo sapiens
Description: Growth inhibition of human SF268 cells assessed as drug level required for 50% reduction in net protein increase by SRB assay relative to control

SF-295 = assay: cells; settings: Homo sapiens
Description: Growth inhibition of human SF295 cells assessed as drug level required for 50% reduction in net protein increase by SRB assay relative to control

T47D [31] = assay: cells; settings: Homo sapiens; remark: listed apart in the source
Description: Growth inhibition of human T47D cells assessed as cell growth at 10 uM by SRB assay

SF-539 = assay: cells; settings: Homo sapiens
Description: Growth inhibition of human SF539 cells assessed as cell growth at 10 uM by SRB assay

SNB-19 [32] = assay: cells; settings: Homo sapiens
Description: Growth inhibition of human SNB19 cells assessed as cell growth at 10 uM by SRB assay

SNB-75 [33] = assay: cells; settings: Homo sapiens; remark: listed apart in the source
Description: Growth inhibition of human SNB75 cells assessed as cell growth at 10 uM by SRB assay

U-251 = assay: cells; settings: Homo sapiens
Description: Growth inhibition of human U251 cells assessed as cell growth at 10 uM by SRB assay

LOX IMVI = assay: cells; settings: Homo sapiens
Description: Growth inhibition of human LOXIMVI cells assessed as cell growth at 10 uM by SRB assay

SK-MEL-5 = assay: cells; settings: Homo sapiens
Description: Growth inhibition of human SK-MEL-5 cells assessed as cell growth at 10 uM by SRB assay

OVCAR-4 [34] = assay: cells; settings: Homo sapiens; remark: listed apart in the source
Description: Growth inhibition of human OVCAR4 cells assessed as cell growth at 10 uM by SRB assay

OVCAR-5 = assay: cells; settings: Homo sapiens
Description: Growth inhibition of human OVCAR5 cells assessed as cell growth at 10 uM by SRB assay

SK-OV-3 [35] = assay: cells; settings: Homo sapiens; remark: listed apart in the source
Description: Growth inhibition of human SKOV3 cells assessed as cell growth at 10 uM by SRB assay

786-0 [36] = assay: cells; settings: Homo sapiens; remark: listed apart in the source
Description: Growth inhibition of human 786-0 cells assessed as cell growth at 10 uM by SRB assay

**Q.** Which results are given for `CCCCCCCC[N+](C)(CCCCCCCC)CCCCCCCC.O=S(=O)([N-]S(=O)(=O)C(F)(F)F)C(F)(F)F`?
**A.** GI50 (SNB-75 [1]): 336 nM; GI50 (Malme-3M): 290 nM; GI50 (M14): 453 nM; GI50 (SK-MEL-28 [2]): 710 nM; GI50 (UACC-257): 411 nM; GI50 (IGROV-1): 388 nM; GI50 (OVCAR-3): 315 nM; GI50 (OVCAR-4 [3]): 309 nM; GI50 (SK-OV-3 [4]): 565 nM; GI50 (786-0 [5]): 415 nM; GI50 (RXF 393 [6]): 464 nM; GI50 (SN12C [7]): 367 nM; GI50 (UO-31 [8]): 686 nM; GI50 (PC-3 [9]): 282 nM; GI50 (DU-145): 407 nM; GI50 (MCF7): 317 nM; GI50 (BT-549 [10]): 421 nM; GI50 (T47D [11]): 428 nM; GI50 (MDA-MB-468): 119 nM; CC50 (MOLT-4): 4890 nM; CC50 (SR): 5130 nM; CC50 (NCI-H460 [12]): 4100 nM; CC50 (HCC 2998 [13]): 6960 nM; CC50 (HCT-116): 9900 nM; CC50 (HT-29 [14]): 5170 nM; CC50 (KM12 [15]): 5310 nM; CC50 (SW-620): 10000 nM; CC50 (SNB-19 [16]): 8250 nM; CC50 (SNB-75 [17]): 3770 nM; CC50 (SK-MEL-2): > 100000 nM; CC50 (SK-MEL-28 [18]): 7180 nM; GI50 (cells): 417 nM; growth at 10 µM (ACHN): -93.6%; growth at 10 µM (RXF 393 [19]): -100%; growth at 10 µM (SN12C [20]): -86.5%; growth at 10 µM (UO-31 [21]): -100%; growth at 10 µM (PC-3 [22]): -91.3%; growth at 10 µM (MDA-MB-231): -87%; growth at 10 µM (MDA-MB-435 [23]): -90.8%; GI50 (HT-29 [24]): 305 nM; GI50 (NCI-H460 [25]): 362 nM; CC50 (UO-31 [26]): 5950 nM; CC50 (MDA-MB-435 [27]): 5700 nM; CC50 (BT-549 [28]): 4420 nM; growth at 10 µM (CCRF-CEM): 85.7%; growth at 10 µM (K562): 86.9%; growth at 10 µM (RPMI-8226): 44.2%; growth at 10 µM (A549): -100%; growth at 10 µM (HOP-62): -92.2%; growth at 10 µM (NCI-H322M): -100%; growth at 10 µM (COLO 205): -60.6%; growth at 10 µM (HCC 2998 [29]): -98%; growth at 10 µM (HCT-15): -75%; growth at 10 µM (KM12 [30]): -100%; GI50 (NCI-H23): 308 nM; GI50 (NCI-H226): 478 nM; GI50 (HOP-92): 206 nM; GI50 (EKVX): 215 nM; GI50 (HL-60(TB)): 173 nM; GI50 (SF-268): 493 nM; GI50 (SF-295): 333 nM; growth at 10 µM (T47D [31]): -73.3%; growth at 10 µM (SF-539): -100%; growth at 10 µM (SNB-19 [32]): -89.6%; growth at 10 µM (SNB-75 [33]): -100%; growth at 10 µM (U-251): -75%; growth at 10 µM (LOX IMVI): -74.7%; growth at 10 µM (SK-MEL-5): -100%; growth at 10 µM (OVCAR-4 [34]): -94.1%; growth at 10 µM (OVCAR-5): -100%; growth at 10 µM (SK-OV-3 [35]): -97.8%; growth at 10 µM (786-0 [36]): -95.8%
